Source: PubChem BioAssay AID248 (DTP/NCI, 2004)
Several values for one entry are separate records, joined by “and”; a condition that tells them apart may be missing. Identical values can stand only once. Toxic doses and inconclusive results are not listed. Rule as the data show it: active = T/C of 150% or more; inactive = T/C below 125%.

Tested on: L1210 leukemia ip in BDF1 mice, survival T/C
Assay: NCI In Vivo Anticancer Drug Screen. Data for tumor model L1210 Leukemia (intraperitoneal) in B6D2F1 (BDF1) mice
Conditions: endpoint: mean survival time, higher = longer survival
Method in brief: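 Survival endpoint. Drug-treated group vs vehicle group, expressed as T divided by C. Tumor passaged by transplantation.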

[1] = dose: 100.0 mg/kg/injection, schedule: Q01DX009 (ip), vehicle: saline with Tween-80
[2] = dose: 100.0 mg/kg/injection, schedule: Q04DX002 (ip), vehicle: saline with Tween-80
[3] = dose: 100.0 mg/kg/injection, schedule: Q04DX003 (ip), vehicle: saline with Tween-80
[4] = dose: 200.0 mg/kg/injection, schedule: Q01DX009 (ip), vehicle: saline with Tween-80
[5] = dose: 200.0 mg/kg/injection, schedule: Q04DX002 (ip), vehicle: saline with Tween-80
[6] = dose: 200.0 mg/kg/injection, schedule: Q04DX003 (ip), vehicle: saline with Tween-80
[7] = dose: 400.0 mg/kg/injection, schedule: Q01DX009 (ip), vehicle: saline with Tween-80
[8] = dose: 400.0 mg/kg/injection, schedule: Q04DX002 (ip), vehicle: saline with Tween-80
[9] = dose: 400.0 mg/kg/injection, schedule: Q04DX003 (ip), vehicle: saline with Tween-80
[10] = dose: 100.0 mg/kg/injection, schedule: Q01DX009 (ip), vehicle: Klucel (hydroxypropylcellulose) (HPC)
[11] = dose: 400.0 mg/kg/injection, schedule: Q01DX009 (ip), vehicle: Klucel (hydroxypropylcellulose) (HPC)
[12] = dose: 100.0 mg/kg/injection, schedule: Q04DX003 (ip), vehicle: Klucel (hydroxypropylcellulose) (HPC)
[13] = dose: 200.0 mg/kg/injection, schedule: Q04DX003 (ip), vehicle: Klucel (hydroxypropylcellulose) (HPC)
[14] = dose: 400.0 mg/kg/injection, schedule: Q04DX003 (ip), vehicle: Klucel (hydroxypropylcellulose) (HPC)
[15] = dose: 25.0 mg/kg/injection, schedule: Q01DX009 (ip), vehicle: saline with Tween-80
[16] = dose: 6.25 mg/kg/injection, schedule: Q01DX009 (ip), vehicle: saline with Tween-80
[17] = dose: 100.0 mg/kg/injection, schedule: Q04DX003 (ip), vehicle: saline
[18] = dose: 200.0 mg/kg/injection, schedule: Q04DX003 (ip), vehicle: saline
[19] = dose: 400.0 mg/kg/injection, schedule: Q04DX003 (ip), vehicle: saline

Measured: T/C

O=C(Nc1ccc(Cl)cc1[N+](=O)[O-])OCC1CC2C=CC1C2 (configuration not stated)
inactive: dose: 100.0 mg/kg/injection, schedule: Q01DX001 (ip), vehicle: saline with Tween-80 94 % of control and 87 % of control | [1] 94 % of control and 98 % of control | [2] 96 % of control and 97 % of control | [3] 94 % of control and 98 % of control | dose: 200.0 mg/kg/injection, schedule: Q01DX001 (ip), vehicle: saline with Tween-80 93 % of control and 102 % of control | [4] 100 % of control | [5] 97 % of control and 100 % of control | [6] 98 % of control and 101 % of control | dose: 400.0 mg/kg/injection, schedule: Q01DX001 (ip), vehicle: saline with Tween-80 97 % of control and 101 % of control | [7] 100 % of control | [8] 93 % of control and 87 % of control | [9] 100 % of control and 91 % of control

O=c1cc(-c2ccccc2)oc2ccccc12
inactive: [10] 97 % of control | dose: 200.0 mg/kg/injection, schedule: Q01DX009 (ip), vehicle: Klucel (hydroxypropylcellulose) (HPC) 92 % of control | [11] 108 % of control

Cc1ccc(N2C(=O)CC(Sc3ccccc3N)C2=O)cc1Cl (configuration not stated)
inactive: [10] 88 % of control | [1] 88 % of control | [12] 93 % of control | [3] 86 % of control and 89 % of control | [4] 96 % of control | [13] 93 % of control | [6] 87 % of control and 91 % of control | [11] 90 % of control | [7] 95 % of control | [14] 94 % of control | [9] 86 % of control and 87 % of control

CC(=O)Oc1ccc2c(c1)C(=O)CCC=C2
inactive: dose: 50.0 mg/kg/injection, schedule: Q01DX009 (ip), vehicle: other 92 % of control | dose: 200.0 mg/kg/injection, schedule: Q01DX009 (ip), vehicle: other 92 % of control

COc1ccc(/C=N\N/C(N)=N\N=C\c2ccc(OC)cc2)cc1
inactive: dose: 15.0 mg/kg/injection, schedule: Q01DX Z (ip), vehicle: carboxymethylcellulose (CMC) 89 % of control | dose: 30.0 mg/kg/injection, schedule: Q01DX Z (ip), vehicle: carboxymethylcellulose (CMC) 97 % of control | dose: 60.0 mg/kg/injection, schedule: Q01DX Z (ip), vehicle: carboxymethylcellulose (CMC) 93 % of control and 101 % of control | dose: 120.0 mg/kg/injection, schedule: Q01DX Z (ip), vehicle: carboxymethylcellulose (CMC) 92 % of control | dose: 240.0 mg/kg/injection, schedule: Q01DX Z (ip), vehicle: carboxymethylcellulose (CMC) 100 % of control | dose: 240.0 mg/kg/injection, schedule: Q01DX Z (oral), vehicle: carboxymethylcellulose (CMC) 107 % of control | dose: 480.0 mg/kg/injection, schedule: Q01DX Z (ip), vehicle: carboxymethylcellulose (CMC) 90 % of control | dose: 480.0 mg/kg/injection, schedule: Q01DX Z (oral), vehicle: carboxymethylcellulose (CMC) 105 % of control | dose: 960.0 mg/kg/injection, schedule: Q01DX Z (oral), vehicle: carboxymethylcellulose (CMC) 104 % of control | dose: 1920.0 mg/kg/injection, schedule: Q01DX Z (oral), vehicle: carboxymethylcellulose (CMC) 102 % of control

CCSCCOC(=S)Nc1ccccc1
inactive: [12] 98 % of control | [13] 97 % of control | [14] 92 % of control

[O-][n+]1c(CCl)nc2cccc3c2c1-c1ccccc1-3
inactive: [15] 108 % of control | dose: 50.0 mg/kg/injection, schedule: Q01DX009 (ip), vehicle: saline with Tween-80 110 % of control | dose: 50.0 mg/kg/injection, schedule: Q04DX003 (ip), vehicle: saline with Tween-80 102 % of control | [1] 104 % of control | [3] 107 % of control

CC(=O)c1cc(F)ccc1O
inactive: [3] 102 % of control | [6] 97 % of control | [9] 94 % of control

CC1=C(c2ccccc2)C(c2ccccc2)=C(C)C1=O
inactive: dose: 50.0 mg/kg/injection, schedule: Q01DX001 (ip), vehicle: carboxymethylcellulose (CMC) 97 % of control | dose: 100.0 mg/kg/injection, schedule: Q01DX001 (ip), vehicle: carboxymethylcellulose (CMC) 95 % of control | dose: 200.0 mg/kg/injection, schedule: Q01DX001 (ip), vehicle: carboxymethylcellulose (CMC) 89 % of control | dose: 400.0 mg/kg/injection, schedule: Q01DX001 (ip), vehicle: carboxymethylcellulose (CMC) 95 % of control

CCOC(=O)CS(=O)c1c([N+](=O)[O-])ncn1C (configuration not stated)
inactive: [16] 97 % of control | dose: 12.5 mg/kg/injection, schedule: Q01DX009 (ip), vehicle: saline with Tween-80 94 % of control | [15] 103 % of control

Fc1c(F)c(F)[c]([Sn]([c]2ccccc2)([c]2ccccc2)[c]2ccccc2)c(F)c1F
inactive: dose: 1.56 mg/kg/injection, schedule: Q01DX009 (ip), vehicle: saline with Tween-80 102 % of control | dose: 3.13 mg/kg/injection, schedule: Q01DX009 (ip), vehicle: saline with Tween-80 94 % of control | [16] 92 % of control

CN=C(c1ccc(NC(=O)c2ccc(C(=O)Nc3ccc(C(=NC)N(C)C)cc3)cc2)cc1)N(C)C
inactive: dose: 0.94 mg/kg/injection, schedule: Q01DX Z (ip), vehicle: saline 94 % of control | dose: 1.88 mg/kg/injection, schedule: Q01DX Z (ip), vehicle: saline 101 % of control | dose: 3.75 mg/kg/injection, schedule: Q01DX Z (ip), vehicle: saline 97 % of control | dose: 7.5 mg/kg/injection, schedule: Q01DX Z (ip), vehicle: saline 111 % of control

CSCC(C)O (configuration not stated)
inactive: [17] 109 % of control | [18] 115 % of control | [19] 109 % of control

CCN(CC)CCN=Cc1ccccc1OC
inactive: dose: 100.0 mg/kg/injection, schedule: Q01DX001 (ip), vehicle: saline 98 % of control | dose: 200.0 mg/kg/injection, schedule: Q01DX001 (ip), vehicle: saline 101 % of control

O=C1CCN(CCCN2CCC(=O)N(Cc3ccccc3)C2=S)C(=S)N1Cc1ccccc1
inactive: dose: 100.0 mg/kg/injection, schedule: Q04DX002 (ip), vehicle: DMSO 87 % of control | dose: 200.0 mg/kg/injection, schedule: Q04DX002 (ip), vehicle: DMSO 104 % of control | dose: 400.0 mg/kg/injection, schedule: Q04DX002 (ip), vehicle: DMSO 101 % of control

O=C1CCCCC/C1=C1\C(=O)Nc2ccc(Br)cc21
inactive: [1] 107 % of control | [2] 105 % of control | [4] 100 % of control | [5] 105 % of control | [7] 93 % of control | [8] 97 % of control

O=[N+]([O-])c1c(-c2ccccc2)no[n+]1[O-]
inactive: dose: 40.0 mg/kg/injection, schedule: Q04DX003 (ip), vehicle: Klucel (hydroxypropylcellulose) (HPC) 91 % of control | dose: 80.0 mg/kg/injection, schedule: Q04DX003 (ip), vehicle: Klucel (hydroxypropylcellulose) (HPC) 96 % of control

CN(C=O)c1cccc(C(=O)O)c1
inactive: dose: 100.0 mg/kg/injection, schedule: Q01DX001 (ip), vehicle: Klucel (hydroxypropylcellulose) (HPC) 96 % of control | [12] 103 % of control | dose: 200.0 mg/kg/injection, schedule: Q01DX001 (ip), vehicle: Klucel (hydroxypropylcellulose) (HPC) 94 % of control | [13] 103 % of control | dose: 400.0 mg/kg/injection, schedule: Q01DX001 (ip), vehicle: Klucel (hydroxypropylcellulose) (HPC) 91 % of control | [14] 97 % of control

COC(=O)C(CCCN=C(N)N)NC(=O)OCc1ccccc1 (configuration not stated)
inactive: [17] 105 % of control | [18] 110 % of control | [19] 108 % of control

C[n+]1ccccc1/C=C/c1ccc2cccc(O)c2n1
inactive: dose: 2.0 mg/kg/injection, schedule: Q01DX015 (ip), vehicle: saline 95 % of control | dose: 4.0 mg/kg/injection, schedule: Q01DX015 (ip), vehicle: saline 95 % of control | dose: 8.0 mg/kg/injection, schedule: Q01DX015 (ip), vehicle: saline 94 % of control | dose: 16.0 mg/kg/injection, schedule: Q01DX015 (ip), vehicle: saline 101 % of control | dose: 32.0 mg/kg/injection, schedule: Q01DX015 (ip), vehicle: saline 97 % of control | dose: 75.0 mg/kg/injection, schedule: Q01DX001 (ip), vehicle: saline 102 % of control

C=CCCCCCCCCC(=O)NN1CCOCC1
inactive: [3] 98 % of control | [6] 92 % of control | [9] 92 % of control
